Measurements as given in patent publication US20100221308A1, “ANTIMICROBIAL COMPOSITIONS AND USES THEREOF” (KANE BIOTECH INC., priority 2005, published 2010).
In brackets after ≈: the same amount, converted by molar mass. Like-named read-outs stand apart in the source and are kept apart here.

Assays:
biofilm embedded E. coli = test: In vitro microplate assay, growth of biofilm embedded bacteria (CFU); format: cell-based; conditions: FIG. 1: 50 μg/ml PS, 12.5 μg/ml CHX; 24 hours
Procedure: (§1) In vitro microplate assays were performed to determine the enhanced effects of protamine sulfate and chlorhexidine salt combination on the growth of biofilm embedded biofilm forming catheter-associated bacteria such as E. coli, Pseudomonas aeruginosa and Staphylococcus epidermidis. Overnight culture of each bacterial strain grown in Luria-Bertani (LB) or Tryptic Soy Broth (TSB) was used as inoculum. Bacteria were grown in Colony Forming Antigen (CFA) medium (for gram-negative) or in TSB (for gram-positive) on a 12-well microplate in the absence and presence of each test compound (PS or CHX) separately and together (PS+CHX) at 12.5, 25, or 50 μg/ml. The plate was incubated at 37° C. for 24 hours. Media containing planktonic cells in each well were removed gently and rinsed with sterile water. A known volume of water was added to each well and sonicated for 30 seconds. The transfer of contents of each well into a sterile tube and vortexing for a minute was followed by 10-fold serial dilution and plating on agar plates using a spreader. After incubating the plates at 37° C. for 24 hours, the colonies forming units (CFU) were counted.

[1] = system: biofilm embedded Pseudomonas aeruginosa; test: as above; format: cell-based; conditions: FIG. 2: 25 μg/ml PS, 25 μg/ml CHX; 24 hours
Procedure: as §1

[2] = system: biofilm embedded Staphylococcus epidermidis; test: as above; format: cell-based; conditions: FIG. 3: 12.5 μg/ml PS, 12.5 μg/ml CHX; 24 hours
Procedure: as §1, with “Bacteria were grown in Colony Forming Antigen (CFA) medium (for gram-negative) or in TSB (for gram-positive) on a 12-well microplate in the absence and presence of each test compound (PS or CHX) separately and together (PS+CHX) at 12.5, 25, or 50 μg/ml.” left out

E. coli = test: MIC, broth microdilution assay; format: cell-based; conditions: agent alone, 24 h
K. pneumoniae = test: MIC, broth microdilution assay; format: cell-based, Klebsiella pneumoniae; conditions: agent alone, 24 h
P. aeruginosa = test: MIC, broth microdilution assay; format: cell-based, Pseudomonas aeruginosa; conditions: agent alone, 24 h
S. aureus = test: MIC, broth microdilution assay; format: cell-based, Staphylococcus aureus; conditions: agent alone, 24 h
B. cereus = test: MIC, broth microdilution assay; format: cell-based, Bacillus cereus; conditions: agent alone, 24 h
S. thermophilus = test: MIC, broth microdilution assay; format: cell-based, Streptococcus thermophilus; conditions: agent alone, 24 h
L. monocytogens = test: MIC, broth microdilution assay; format: cell-based, Listeria monocytogenes; conditions: agent alone, 24 h
C. perfringens = test: microbe, parasite or virus in culture; format: cell-based, Clostridium perfringens; conditions: 24 h
A. naeslundii ATCC 12104 = test: MIC for oral bacteria, broth microdilution assay; format: cell-based; conditions: agent alone, 24 h
Procedure: (§2) The minimum inhibitory concentrations (MICs) of chlorhexidine (CHX) and protamine sulfate (PS) alone and CHX and PS combination for S. mutans, S. sobrinus and A. naeslundii were determined using a broth microdilution assay in 96-well microtiter plate as described previously (Amsterdam, D. 1996., In: V. Loman, Ed., “Antibiotics in laboratory medicine”, p. 52-111, Williams and Wilkins, Baltimore, Md.). S. mutans and S. sobrinus were grown overnight at 37° C. with 100 rpm shaking in THYE broth supplemented with 0.01% hog gastric mucin, and A. naeslundii was grown in TSB-YK broth, and diluted to approximately 10^5 CFU/ml. […] Plates were incubated at 37° C. for 24 h and were read at 600 nm using a microtiter plate reader (Labsystems, Multiskan Ascent, Helsinki, Finland).

S. mutans UA 159 = test: MIC for oral bacteria, broth microdilution assay; format: cell-based; conditions: agent alone, 24 h
Procedure: as §2

S. sobrinus HNG 909S = test: MIC for oral bacteria, broth microdilution assay; format: cell-based; conditions: agent alone, 24 h
Procedure: as §2

[H]/N=C(\N/C(=N/[H])NCCCCCCNC(=N)NC(=N)Nc1ccc(Cl)cc1)Nc1ccc(Cl)cc1 [CHX, chlorhexidine]
inhibition of growth of biofilm embedded organism (CFU), in words (biofilm embedded E. coli): more effective than protamine sulfate
inhibition of growth of biofilm embedded organism (CFU), in words [1]: more effective than protamine sulfate
inhibition of growth of biofilm embedded organism (CFU), in words [2]: more effective than protamine sulfate
MIC (E. coli; Escherichia coli, read-out: MIC): 0.39 µg/mL (≈ 0.772 µM)
MIC (K. pneumoniae; Klebsiella pneumoniae, read-out: MIC): 6.25 µg/mL (≈ 12.4 µM)
MIC (P. aeruginosa; Pseudomonas aeruginosa, read-out: MIC): 12.5 µg/mL (≈ 24.7 µM)
MIC (S. aureus; Staphylococcus aureus, read-out: MIC): 0.781 µg/mL (≈ 1.55 µM)
MIC (B. cereus; Bacillus cereus, read-out: MIC): 3.12 µg/mL (≈ 6.18 µM)
MIC (S. thermophilus; Streptococcus thermophilus, read-out: MIC): < 0.195 µg/mL
MIC (L. monocytogens; Listeria monocytogenes, read-out: MIC): 3.12 µg/mL (≈ 6.18 µM)
MIC (C. perfringens; Clostridium perfringens): 1.56 µg/mL (≈ 3.09 µM)
MIC (A. naeslundii ATCC 12104; Actinomyces naeslundii, ATCC12104, read-out: Minimum inhibitory concentration): 50 µg/mL
MIC (S. mutans UA 159; Streptococcus mutans, UA159, read-out: Minimum inhibitory concentration): 6.25 µg/mL
MIC (S. sobrinus HNG 909S; Streptococcus sobrinus, HNG909S, read-out: Minimum inhibitory concentration): 1.56 µg/mL

protamine sulfate [PS]
MIC (E. coli): >100 µg/mL
MIC (K. pneumoniae): >200 µg/mL
MIC (P. aeruginosa): 200 µg/mL
MIC (S. aureus): 200 µg/mL
MIC (B. cereus): >200 µg/mL
MIC (S. thermophilus): 200 µg/mL
MIC (L. monocytogens): 200 µg/mL
MIC (C. perfringens; agent alone): >200 µg/mL
Minimum inhibitory concentration (A. naeslundii ATCC 12104): >200 µg/mL
Minimum inhibitory concentration (S. mutans UA 159): >200 µg/mL
Minimum inhibitory concentration (S. sobrinus HNG 909S): >200 µg/mL
